# Values of other authors in US7989624B2, “Aryl spirolactam CGRP receptor antagonists” (Merck Sharp & Dohme Corp., priority 2004, dated 2011).
# Where no end group is shown, it is not given here.
# Key:
# migraine = conditions: clinical studies, intravenously administered
# marmoset = conditions: electrical stimulation of the trigeminal ganglion
# rat = conditions: trigeminal ganglion stimulation
# rats = conditions: electrical stimulation of the dura mater, prior administration
compound,measurement,setting,value
NCCCC[C@H](NC(=O)[C@@H](Cc1cc(Br)c(O)c(Br)c1)NC(=O)N1CCC(N2Cc3ccccc3NC2=O)CC1)C(=O)N1CCN(c2ccncc2)CC1 [BIBN4096BS],acute treatment for migraine,migraine,safe and effective
same,increase in facial blood flow,marmoset,could be blocked
"CGRP(8-37): a fragment of CGRP that lacks seven N-terminal amino acid residues; a peptide CGRP antagonist (VTHRLAGLLSRSGGVVKNNFVPTNVGSKAF; ends and bridges not checked; UniProt P06881 90-119, looked up, fragment)",increased facial blood flow,rat,inhibited
same,increase of the diameter of the middle meningeal artery,rats,blocked
